# Data as given in US20080051464A1, “Protein phosphatase inhibitors” (The Cleveland Clinic Foundation, priority 2006, published 2008).
# What was measured:
# [1] = test system: SHP-1 substrate pLck-pY394 in Jurkat T cells; assay: induction of pLck-pY394 in Jurkat cells (SDS-PAGE/Western blotting); format: cell-based, human
# Procedure: (§1) Jurkat cells in culture medium (3×10^6 cells/ml, 1 ml/tube) were treated with agents for designated times at room temperature. After brief centrifuging in a microfuge (4,000 rpm, 2 min), the cell pellet was lysed on ice for 30 min in 100 μl of cold lysis buffer (1% NP40, 50 mM Tris, pH 7.4, 150 mM NaCl, 20 mM NaF, 0.2 mM Na3VO4 and 1 mM Na3MO4) containing a cocktail of proteinase inhibitors (Sigma, 1 tablet/10 ml). The lysates were cleared by centrifuging (14,000 rpm, 10 min) in a microfuge at 4° C. to remove insoluble parts, mixed with equal volume of 2×SDS-PAGE sample buffer, boiled for 5 min and analyzed (˜3×10^5 cells/well) by SDS-PAGE/Western blotting. Relative intensities of phosphotyrosine bands were quantified through densitometry analysis.
# as §1, with “blotting as described previously (23, 24).” for “blotting.”
# as §1, with “blotting as described previously (17, 18).” for “blotting.”
# recombinant SHP-1 = molecular target: T1, recombinant SHP-1 (Homo sapiens, UniProt P29350); assay: rapid in vitro SHP-1 PTPase assay (DIFMUP substrate); format: biochemical; details: 1 μg/well; FIG. 12A
# T1 construct: Recombinant protein of SHP-1 PTPase catalytic domain was described
# T1 sequence (P29350 244-515 limits assumed): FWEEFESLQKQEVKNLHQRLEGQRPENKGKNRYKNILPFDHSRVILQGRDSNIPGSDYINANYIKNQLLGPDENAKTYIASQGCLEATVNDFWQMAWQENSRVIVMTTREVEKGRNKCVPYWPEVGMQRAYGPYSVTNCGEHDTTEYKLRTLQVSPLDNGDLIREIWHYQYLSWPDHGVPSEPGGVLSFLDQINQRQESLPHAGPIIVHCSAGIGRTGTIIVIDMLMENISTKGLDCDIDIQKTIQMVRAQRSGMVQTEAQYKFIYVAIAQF
# Procedure: Recombinant protein of SHP-1 PTPase catalytic domain was described and stored in Tris buffer (25 mM Tris, pH7.5, 1 mM EDTA, 2 μM 2-ME, 25% glycerol) at −80° C. Fluorescence substrate DIFMUP (6,8-difluoro-4 methylumbelliferyl phosphate) was purchased (Molecular Probes). SSG was reported previously (21-23) and stored at 4° C. in darkness prior to use. Human and mouse IFNγ ELISPOT Kit (R & D System), CD4^+ Cell Intracellular IFNγ Detection Kit (BD Bioscience) and CD8^+ Cell Intracellular IFNγ Detection Kit (BD Bioscience) were purchased from commercial sources. Human Jurkat T cell line (26) and murine B16 melanoma cell line (ATCC) were maintained in […] culture medium supplemented with 10% fetal calf serum (FCS). Antibodies against pLck-pY394 (Cell Signaling), pLck-pY505 (Cell Signaling), pZap70 (pY319, BD Biosciences), pSlp76 (pY128, BD Biosciences) and pLat (pY226, BD Biosciences) were purchased from commercial sources.
# (§2) A rapid SHP-1 PTPase assay was developed for screening the compounds in a commercial library of 34,000 drug-like small chemicals (Chembridge, Mass.). Briefly, compounds of the library (1 μg/well in 0.21 DMSO) were placed in 96-well plates (Falcon, 353072) and mixed with recombinant SHP-1 protein (0.1 μg/well) in 90 μl of HEPES buffer (50 mM HEPS, pH 7.5, 150 mM NaCl, 1 mM EDTA, 0.2 mM DTT and 0.1 mg/ml BSA). The plates were incubated at room temperature for 10 minutes prior to the addition of fluorescence substrate DIFMUP (40 μM stock in HEPES buffer, 10 μl/well) to initiate PTPase reaction. Upon completion of PTPase reaction at room temperature for 1 hr in darkness, fluorescence signal of individual wells were recorded using a Vector^2 Multilabel Counter (Vector, CA). They were compared to that of control SHP-1 PTPase reaction (˜10,000 units of fluorescence signal) in the absence of any compound (100%) for calculating relative SHP-1 inhibition induced by the compounds after subtracting the background signal (˜500 units of fluorescence signal) of the substrate.
# as §2, with “To evaluate their” for “A rapid”, “inhibitory activity,” for “PTPase assay was developed for screening”, “analogs” for “compounds in a commercial library of 34,000 drug-like small chemicals (Chembridge, Mass.). Briefly, compounds of the library”, “0.2 μl” for “0.21”, “aliquot individually to” for “placed in”, “(500” for “(˜500”
# B16 melanoma tumors = assay: B16 melanoma tumor growth in C57BL/6J mice; format: in vivo
# Procedure: Tumor volume (n=5) was measured during the study period and calculated using the formula for a prolate spheroid. Student's t test was used for assessing the significance of tumor volume differences among differential treatment groups. Mouse viability (daily) and body weights (weekly) were also recorded during the study period. Major internal organs of the mice were inspected visually upon their termination at the end of the experiment.
# To assess anti-tumor activity, C57BL/6J mice (˜8-week old, female, Taconic Farms, Germantown, N.Y.) were inoculated (s.c.) at the flanks with B16 melanoma cells (4×10^4 cells/site). […] Tumor volume (n=5) was measured during the study period and calculated using the formula for a prolate spheroid. Student's t test was used for assessing the significance of tumor volume differences among differential treatment groups. Mouse viability (daily) and body weights (weekly) were also recorded during the study period. Major internal organs of the mice were inspected visually upon their termination at the end of the experiment.
# [2] = test system: CD3+ and CD3− IFNγ+ splenocytes; assay: spleno-IFNγ+ T cells in B16 tumor mice (flow cytometry); format: in vivo, mouse; details: 1 mg/kg oral, day 22
# Procedure: Splenocytes from mice untreated or treated with L5a2 were stained with appropriate isotype control antibodies or FICT-labeled anti-CD3 monoclonal antibody (BD) plus PE-labeled monoclonal antibody (BD) for intracellular IFNγ following established procedures. The stained samples were washed 3 times, re-suspended in 200 μl of 1% para-formaldehyde solution and analyzed (20,000 cells/sample) using a BD FACS Caliburs cytometer and FlowJoe software.
# To gain further insights into the mechanism of action in L5a2 in vivo, spleens were harvested from the B16 tumor mice in the control and the L5a2-treated groups (FIG. 13A) on day 22 to assess whether L5a2 induced IFNγ+ cells in the tumor-bearing mice. It was also determined whether the induced-IFNγ+ cells were of CD3+ T lymphocytes, which were activated TH1 critical for anti-tumor immunity. Splenocytes were prepared and co-stained for intracellular IFNγ and the T cell surface marker CD3 for quantification of IFNγ+T cells by flow cytometry.
# B16 melanoma cells = assay: B16 melanoma cell growth in culture (MTT assay); format: cell-based, mouse; details: 6 days (FIG. 13C)
# Text: L5, L6 and L6 analogs (Chembridge), mouse IFNγ ELISPOT Kit (R & D System) and antibody against pLck-pY394 or pERK1/2 (Cell Signaling) were purchased from commercial sources. Human Jurkat T cell line and murine B16 melanoma cell line (ATCC) and other cancer cell lines were maintained in […] culture medium supplemented with 10% fetal calf serum (FCS). The effects of chemical compounds on cancer cell growth in culture were quantified by MTT assays following our established procedures.
# [3] = test system: IFNγ+ cells in mouse splenocytes; assay: induction of IFNγ+ cells in mouse splenocytes in vitro (ELISPOT); format: cell-based
# Procedure: The splenocytes were cultured in RPMI 1640 medium supplemented with 10% FCS in the absence or presence of designated agents for 16 hrs in flat-bottom 96-well plates coated with a monoclonal antibody specific for mouse IFNγ (mouse IFNγ ELISPOT Kit, R & D System). The plates were then processed for in situ detection of IFNγ+ cells by ELISA following the manufacturer's procedure. Scanning and counting of IFNγ+ cells in the plates were accomplished using an automatic ELISPOT reader with Immunospot2 software (Cellular Technology Ltd). Mouse splenocytes were also untreated or treated with agents for 16 hrs in culture dishes and then stained with appropriate isotype control antibodies or FICT-labeled anti-CD3 monoclonal antibody (BD) plus PE-labeled monoclonal antibody (BD) for intracellular IFNγ following established procedures. The stained samples were washed 3 times, re-suspended in 200 μl of 1% para-formaldehyde solution and analyzed (20,000 cells/sample) using a BD FACS Caliburs cytometer and WinList software.
# The splenocytes were cultured in RPMI 1640 medium supplemented with 10% FCS in the absence or presence of designated agents for 16 hrs in flat-bottom 96-well plates coated with a monoclonal antibody specific for mouse IFNγ (mouse IFNγ ELISPOT Kit, R & D System). The plates were then processed for in situ detection of IFNγ+ cells by ELISA following the manufacturer's procedure. Scanning and counting of IFNγ+ cells in the plates were accomplished using an automatic ELISPOT reader with Immunospot2 software (Cellular Technology Ltd).
# Jurkat cells = assay: Jurkat cell apoptosis (Annexin V / 7-AAD, FACS); format: cell-based, human; details: 16 hrs (FIG. 23)
# Procedure: FIG. 23 illustrates jurkat cells were treated with L6 and analogs in culture for 16 hrs. Cells were then stained for apoptotic marker Annexin V and cell death marker 7-AAD prior to FACS analysis.
# [4] = test system: HT-29 human colon cancer cells; assay: cytotoxicity of 5FU against HT-29 cells with L6 or analogs (MTT assay); format: cell-based; details: 5FU 2 μm, 3 days, then 4 days culture (FIG. 24)
# Procedure: FIG. 24 illustrates HT-29 cells were treated with L6 or the analogs in the absence or presence of 5FU (2 μm) for 3 days. After washing, the cells were cultured for 4 days prior to quantification of viable cells by MTT assays.
# MKPs = assay: induction of MKPs substrates in Jurkat cells (Western blotting); format: cell-based, human
# Procedure: FIG. 22 illustrates selective induction of MKPs substrates by L6 and analogs in Jurkat human leukemic cells. Jurkat cells were treated with the compounds for 30 min in culture prior to quantification of MKPs substrates by SDS-PAGE/Western blotting.
# SHP-1 and SHP-2 = assay: SSG inhibition of recombinant and intracellular SHPs (applicant's earlier studies); details: clinically achievable levels
smiles,measurement,setting,value
O=C1C=CC(=O)C(c2ccc(Cl)cc2Cl)=C1 [L5a1],effectiveness in inducing pLck-pY394 relative to L5,"[1]; Jurkat cells, 10 min (FIG. 10)",~50%
same,inhibition of phosphatase activity of recombinant SHP-1,recombinant SHP-1,completely or almost completely inhibited
O=C1C=CC(=O)C(c2cccc(Cl)c2)=C1 [L5a2],inhibition of phosphatase activity of recombinant SHP-1,recombinant SHP-1,completely or almost completely inhibited
same,growth inhibition of B16 tumors vs control,"B16 melanoma tumors; 1 mg/kg body weight daily, Monday-Friday/week, oral gavage",~75%
same,survival of treated mice,"B16 melanoma tumors; 1 mg/kg daily, oral gavage",survived till the end of the study
same,increase of CD3+ IFNγ+ cells,[2],~4.5 fold
same,increase of CD3− IFNγ+ cells,[2],1.3 fold
same,inhibition of B16 melanoma cells in culture,B16 melanoma cells,failed to inhibit B16 melanoma cells in culture
same,immune cell activation (increase),[3]; FIG. 11,~20 fold
O=C1C=C(c2ccccc2)C(=O)c2ccccc21 [L5a3],inhibition of phosphatase activity of recombinant SHP-1,recombinant SHP-1,~80%
CCOc1ccc(C2=CC(=O)C=CC2=O)cc1 [L5a4],inhibition of phosphatase activity of recombinant SHP-1,recombinant SHP-1,completely or almost completely inhibited
COc1ccc(C2=CC(=O)C=CC2=O)cc1 [L5a5],inhibition of phosphatase activity of recombinant SHP-1,recombinant SHP-1,completely or almost completely inhibited
O=C1C=C(c2ccccc2Cl)CC(=O)C1 [L5a10],effect on pLck-pY394 levels,"[1]; Jurkat cells, 10 min (FIG. 10)",failed to induce pLck-pY394
same,inhibition of phosphatase activity of recombinant SHP-1,recombinant SHP-1,~5%
same,inhibition of B16 melanoma tumors in mice,B16 melanoma tumors; preliminary experiment,failed to inhibit B16 melanoma tumors
same,induction of spleno-IFNγ+ cells (average),[3]; doses from 1-30 μg/ml,~2 folds
O=c1cc(Cl)sn1Cc1ccccc1 [L6a1],Jurkat cell apoptosis,Jurkat cells,failed to induce apoptosis
same,augmentation of 5FU cytotoxicity against HT-29 cells,[4],not
same,MKP predominantly targeted (as indicated by effects on the substrates),MKPs,inhibited HVH3
same,"differential effects on MKP substrates (pERK1/2, p38, pJNK)","MKPs; 30 min (FIG. 22), L6 at 1-100 ng/ml",lack of activity to induce pJNK or p-p39
"O.O.O.O.O.O.O.O.O.O=C([O-])[C@@H]1[O][Sb]2([O-])([O][Sb]34([OH])[O][C@H]([C@H](O)CO)[C@H]([O]3)[C@H](C(=O)[O-])[O]4)[O][C@H]([C@H](O)CO)[C@@H]1[O]2.[Na+].[Na+].[Na+] [SSG, Sodium Stibogluconate, reference compound]",pLck-pY394 induction,[1]; lower (1 μg/ml) or higher (100 μg/ml) doses,failed
same,level at which recombinant and intracellular SHP-1 and SHP-2 are inhibited,SHP-1 and SHP-2,10 µg/mL
